Measurements published in patent publication US9907479B2, “Contribution of oxidative stress to AF electrograms” (NORTHWESTERN UNIVERSITY, priority 2013, dated 2018).

Experiments:
AF EGMs in HF [1] = assay: EGM-guided targeted gene injection at ROS responsive PLA quadrant in HF dog, AF EGM mapping; format: in vivo; settings: one HF dog, given during AF, 10 mg/kg, before gene injection
Method: In one dog, HF was induced by RV pacing at 240 bpm×3 weeks. AF was then induced and recorded in the PLA by high density epicardial plaques (130 electrodes; […]). […] Real time analysis of AF EGMs was performed. The PLA was divided into 4 equal quadrants as shown in FIG. 15A and AF characteristics analyzed for each quadrant. […] One week later, AF mapping was performed again, in the absence and presence of apocynin. […] NOX2 expression (assessed by RT-PCR) was 70% lower in the injected quadrant than in neighboring, un-injected PLA.

AF EGMs in HF [2] = assay: Acute ROS blockade during induced AF in pacing-induced HF dogs, epicardial AF EGM mapping; format: in vivo, dog; settings: for effect on AF EGM parameters (DF, OI, FI, ShEn): apocynin 10 mg/kg
Method: HF: In 4 animals, rapid RV pacing was performed at 240 beats/min for 3-4 weeks to induce HF. AF was then induced and AF EGMs recorded by an epicardial, multielectrode plaque (130 electrodes; […]). Apocynin (an NAPDH oxidase inhibitor) was then given (10 mg/kg) acutely. After apocynin administration, AF slowed and then terminated within 5 minutes (in every experiment). […] After apocynin washout (90 minutes), AF was re-induced and mito-TEMPO was given (0.7 mg/kg). […] The atrial tissue was then removed and examined for O^2- generation using lucigenin chemiluminescence. […] Thus, AF EGMs in HF are very sensitive to acute blockade of NADPH oxidase and mitochondrial ROS and AF EGM organization in response to ROS blockade closely correlates with the amount of O^2- in underlying tissue.

AF EGMs in a RAP model = assay: Acute ROS blockade in rapid atrial pacing (RAP) persistent AF model, AF EGM mapping; format: in vivo, dog
Method: RAP: In 2 animals, rapid atrial pacing was performed at 600 bpm for 3-4 weeks to induce persistent AF. Apocynin was given as in HF above.

[3] = HF dogs, induced AF, mito-TEMPO 0.7 mg/kg
[4] = RAP dogs (600 bpm, 3-4 weeks), persistent AF, apocynin given as in HF

| Compound | effect on AF (AF EGMs in HF [1]) | time to AF termination after administration (AF EGMs in HF [2]; HF dogs (RV pacing 240 beats/min, 3-4 weeks), induced AF, 10 mg/kg given acutely, in every experiment) [min] | effect on AF EGM parameters (DF, OI, FI, ShEn) (AF EGMs in HF [2]; [3]) | change in DF (AF EGMs in a RAP model; [4]) | change in OI (AF EGMs in a RAP model; [4]) | termination of AF (AF EGMs in a RAP model; RAP dogs, 2 animals) | effect on AF (slowing, termination) (AF EGMs in HF [2]; HF dogs, AF re-induced after apocynin washout (90 minutes), mito-TEMPO 0.7 mg/kg) |
| --- | --- | --- | --- | --- | --- | --- | --- |
| COc1cc(C(C)=O)ccc1O [apocynin, Apocynin] | organization of AF followed by AF termination | ≤ 5 | organization of all AF EGM parameters | significant decrease | increase | In one animal, there was termination of AF |  |
| CC1(C)CC(NC(=O)C[P+](c2ccccc2)(c2ccccc2)c2ccccc2)CC(C)(C)N1[O] [mito-TEMPO] |  |  | organization of all AF EGM parameters |  |  |  | gradual slowing and termination of AF in every animal |
